Legend:
Assay in all cases: greenhouse post-emergence herbicidal test
Format in all cases: in vivo
SORBI (Sorghum bicolor) = settings: SORBI; a) 25 g/ha, MSO or COC 1.25%, scale 0-100
Excerpt: (§1) The culture vessels used were plastic flowerpots filled, as substrate, with sandy loam comprising about 3% of humus. The seeds of the test plants were sown separated according to species.
(§2) For the post-emergence treatment, the test plants were initially cultivated to a height of 3-17 cm according to their habit and only then treated with the active compounds, which had been suspended or emulsified in water. To this end, the test plants were either sown directly and cultivated in the same vessels, or they were initially cultivated separately as seedlings and transplanted into the test vessels a few days prior to the treatment. According to the species, the plants were kept at temperatures of from 15° C. to 25° C. or from 20 to 35° C. The trial period extended over 3 weeks. During this time the plants were tended and their response to the individual treatments was evaluated.
(§3) The application in the greenhouse was carried out at a spray liquor application rate of 200 l/ha.

SOLNI (Solanum nigrum) = settings: SOLNI; a) 3.125 g/ha, MSO or COC 1.25%, scale 0-100
Excerpt: as §1, §2, §3

[1] = system: ECHCG (Echinochloa crus-galli); settings: MSO or COC 1.25%, scale 0-100
Excerpt: as §1, §2, §3

HELAN (Helianthus annua) = settings: HELAN; a) 6.25 g/ha, MSO or COC 1.25%, scale 0-100
Excerpt: as §1, §2, §3

[2] = system: XANST (Xanthium strumarium); settings: XANST; a) 12.5 g/ha, MSO or COC 1.25%, scale 0-100
Excerpt: as §1, §2, §3

SETVI (Setaria viridis) = settings: SETVI; a) 12.5 g/ha, MSO or COC 1.25%, scale 0-100
Excerpt: as §1, §2, §3

[3] = system: PANMI (Panicum milliaceum); settings: PANMI; a) 12.5 g/ha, MSO or COC 1.25%, scale 0-100
Excerpt: as §1, §2, §3

[4] = system: PANDI (Panicum dichotomiflorum); settings: PANDI; a) 25 g/ha, MSO or COC 1.25%, scale 0-100
Excerpt: as §1, §2, §3

AMBEL (Ambrosia elatior) = settings: AMBEL; a) 3.125 g/ha, MSO or COC 1.25%, scale 0-100
Excerpt: as §1, §2, §3

`Cc1c(C(=O)c2cnn(C)c2O)ccc(S(C)(=O)=O)c1C1=NOCC1` [a)] showed an observed effect (SORBI (Sorghum bicolor)) of 10, an observed effect (SOLNI (Solanum nigrum)) of 30 and an observed effect ([1]; ECHCG; a) 12.5 g/ha) of 0. For the same compound, the observed effect ([1]; ECHCG; a) 25 g/ha) was 0, the observed effect (HELAN (Helianthus annua)) was 30 and the observed effect [2] was 65. It also gave an observed effect (SETVI (Setaria viridis)) of 60, an observed effect [3] of 75 and an observed effect [4] of 0. The observed effect (AMBEL (Ambrosia elatior)) was 60.

Reference: patent US20070123426A1, “Mixtures” (BASF Aktiengesellschaft, priority 2005, published 2007)
